The values that follow come from PubChem BioAssay (NCI).

Holding throughout (test): DTP human tumour cell line panel, 48 h
The subject of assay [1] is OVCAR-4 ovarian.
The test system of assay [2] is CCRF-CEM leukemia.
Assay [3] concerns SF-539 CNS.
Assay [4] concerns EKVX NSCLC.
Assay [5] has as its system HOP-62 NSCLC.
In assay [6] the test system is HCC-2998 colon.
For assay [7], the system named is UACC-257 melanoma.
In assay [8] the test system is TK-10 renal.
The subject of assay [9] is HL-60(TB) leukemia.

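Test compounds were applied to cells in 96-well plates for 48 hours at 5 doses. The concentration for 50% growth inhibition is given as GI50. Definition used: TGI = concentration required for complete inhibition of growth.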

Take `O=c1nc(NC(c2ccccc2)(c2ccccc2)c2ccccc2)ccn1CCNCCn1ccc(NC(c2ccccc2)(c2ccccc2)c2ccccc2)nc1=O`: the TGI in [1] is 49 µM; in [2], more than 100 µM; in [3], 29.6 µM; in assay [4], 63.6 µM; in [5], 32.5 µM; in assay [6], 17.1 µM. Moreover, the TGI was determined as 23.3 µM in assay [7] and 60.6 µM in [8].
For the compound `C=C1C(=O)O[C@H]2[C@H]1CCC(/C=N/c1ncc(Br)cc1N)=C\CC[C@@]1(C)O[C@@H]21`, the GI50 in assay [1] is 2.43 µM; in [9], 494 nM; in [2] it was 429 nM; in assay [3], 2.06 µM; in assay [4] it was 2.36 µM; in [5] it was 10.8 µM. The GI50 was 3.56 µM in assay [6], 1.8 µM in [7] and 1600 nM in [8]. The TGI in [1] was 11.6 µM; in assay [9], 3.29 µM; in assay [2], 10.8 µM; in [3], 6.82 µM; in assay [4], 11.8 µM; in assay [5], 24 µM. Also, the total growth inhibition concentration (TGI) in [6] stood at 12.9 µM; in assay [7], 4.45 µM; in [8], 3.19 µM.
Turning to `CN(C)CCNC(=O)c1cccc2[nH]c(-c3cccnc3)nc12`, the TGI in assay [1] is 88.9 µM; in [9], more than 100 µM; in assay [2], more than 100 µM; in [3], 45.5 µM; in [4], 56.5 µM; in assay [5], 44.1 µM. Moreover, the TGI in [6] is 43.4 µM; in [7], 39.9 µM; in assay [8] it was 53.5 µM.
Regarding `COc1ccc(CC(=O)NCCc2ccc(OC)c(OC)c2)cc1Br`, the concentration for total growth inhibition (TGI) in [1], in assay [9], in assay [2], in assay [3], in assay [4] and in [5] was more than 100 µM throughout. Also, the TGI in [6], in [7] and in assay [8] was more than 100 µM each time.
Take `Cc1c(C(=O)CC(=O)C(=O)Nc2ccc(Cl)cc2)[n+](=O)c2ccccc2n1[O-]`: the TGI in assay [1], in [9], in assay [2], in assay [3], in [4] and in assay [7] was more than 100 µM each time. Also, the TGI in assay [8] is more than 100 µM.
With `CCCC/C=C1\CCC(C)(CN(C)C)C1=O` (centres undefined), the TGI in assay [1], in [9], in assay [2], in assay [3], in assay [4] and in assay [5] was more than 100 µM in each case. In addition, the TGI in [6], in assay [7] and in assay [8] was more than 100 µM each time.
For the compound `S=c1ssc(Oc2ccccc2)c1Cl`, the GI50 was 34 µM in assay [1]; 3210 nM in assay [9]; 1020 nM in assay [2]; 17.3 µM in [3]; 18.4 µM in [4]; 37 µM in [5]. The GI50 is 3.7 µM in assay [6], 17.6 µM in [7] and 3000 nM in assay [8]. In addition, the TGI in assay [1] was more than 100 µM; in assay [9], more than 100 µM; in assay [2] it was 5.84 µM; in [3] it was 33.8 µM; in assay [4] it was 38.9 µM; in [5], more than 100 µM. Moreover, the TGI worked out at 14.7 µM in [6], 35.5 µM in [7] and 9.68 µM in assay [8].
In the case of `Cc1ccc(NC(=O)C(=O)CC(=O)c2c(C)n([O-])c3ccccc3[n+]2=O)cc1`, the TGI in [1] is 96.3 µM; in assay [9] it was 48.6 µM; in assay [2], 49 µM; in [3] it was 62.5 µM; in assay [4], 40.9 µM; in assay [5], more than 100 µM. Also, the TGI in assay [6] is more than 100 µM; in assay [7] it was 50.7 µM; in assay [8], more than 100 µM.
Turning to `O=C1CCCC(=O)N1CCc1c[nH]c2ccccc12`, the TGI in assay [1], in assay [9], in [2], in assay [3], in assay [4] and in assay [5] was more than 100 µM throughout. For the same compound, the TGI in assay [6], in [7] and in assay [8] was more than 100 µM throughout.
Regarding `COC(=O)[C@]12CC=C3O[C@@H]4OC5(CCCCC5)O[C@@H]4C3[C@@H]1C(=O)CCC2=O` (some centres undefined), the TGI in assay [1], in assay [9], in [2], in assay [4], in [5] and in assay [6] was more than 100 µM each time. In assay [7], this compound displayed a TGI of more than 100 µM.
Take `Fc1ccccc1C1SCc2nc3ccccc3n21` (centres undefined): the TGI is 44.6 µM in assay [9]; more than 100 µM in [2]; more than 100 µM in assay [3]; more than 100 µM in assay [4]; more than 100 µM in assay [6]; more than 100 µM in [7]. In addition, the TGI in assay [8] was more than 100 µM.
In the case of `Cc1cc(NS(=O)(=O)c2ccc(NC(=O)c3ccc(Cl)c4c(Nc5ccc(S(=O)(=O)N=C(N)N)cc5)c5ccccc5nc34)cc2)no1`, the concentration for total growth inhibition (TGI) in assay [1] was more than 100 µM; in [2], 67.2 µM; in assay [3] it was more than 100 µM; in [4], more than 100 µM; in assay [5] it was 97.7 µM; in assay [6], 41.6 µM. Moreover, the TGI in assay [7] and in assay [8] was more than 100 µM in each case.
With `O=C(O)CCSC(=O)Nc1ccccc1F`, the TGI in assay [1], in assay [9], in assay [2], in assay [3], in assay [4] and in assay [5] was more than 100 µM in each case. For the same compound, the TGI in assay [6] and in assay [8] was more than 100 µM each time.
With `CN1CC[C@]2(C)c3cc(O)ccc3CC3CCCC1C32C` (some centres undefined), the TGI in [9], in assay [2], in [3], in assay [4], in assay [5] and in [6] was more than 100 µM in each case. In addition, the TGI in assay [7] and in [8] was more than 100 µM throughout.
`COc1ccc(S(=O)(=O)N/N=C/c2cc(I)cc([N+](=O)[O-])c2O)cc1OC`: the concentration for total growth inhibition (TGI) was 70.3 µM in assay [1]; 57.5 µM in [9]; more than 100 µM in assay [2]; more than 100 µM in assay [4]; more than 100 µM in assay [6]; more than 100 µM in assay [7]. This compound also returned a total growth inhibition concentration (TGI) in assay [8] of more than 100 µM.
For `CN(C)C=[N+]=[N-]`, the TGI in [1], in assay [9], in [3], in assay [4], in assay [5] and in assay [6] was more than 100 µM each time. The TGI in [7] and in [8] was more than 100 µM each time.
As for `c1ccc2cc3[s+]snc3cc2c1`, the concentration for total growth inhibition (TGI) in assay [1], in assay [9], in assay [2], in [3], in assay [4] and in assay [5] was more than 100 µM in each case. Moreover, the TGI in [6], in [7] and in assay [8] was more than 100 µM throughout.
For `O=C(NCCCCCCNC(=O)OCCSCCn1cc(C(=O)NC(=O)OCc2ccccc2)c(=O)[nH]c1=O)OCCSCCn1cc(C(=O)NC(=O)OCc2ccccc2)c(=O)[nH]c1=O`, the TGI in assay [1], in [2], in assay [4], in assay [5], in assay [6] and in assay [7] was more than 100 µM in each case. In addition, the TGI in assay [8] was more than 100 µM.
On to `Cc1[nH]c(=O)n2c(C)nnc2c1C(=O)Nc1cc(Cl)cc(Cl)c1`, for which the TGI in [1] was more than 100 µM; in [9], 47.9 µM; in assay [2] it was more than 100 µM; in assay [3] it was 78.4 µM; in assay [4], more than 100 µM; in assay [5], 79.4 µM. In assay [8], this compound yielded a TGI of 52.1 µM.
Take `O=C(O)CNS(=O)(=O)c1ccc(NC(=O)CI)cc1`: the TGI was 41.4 µM in assay [1]; 37.5 µM in [9]; 5.85 µM in assay [2]; 30 µM in [3]; 81.6 µM in assay [4]; more than 100 µM in assay [6]. Further, the TGI in assay [7] and in [8] was more than 100 µM each time.
As for `C[C@]12CCC(=O)C(O)=C1CC[C@@H]1C2CC[C@]2(C)Nc3c(cnn3-c3ccccc3)CC12` (some centres undefined), the total growth inhibition concentration (TGI) in assay [1] is more than 100 µM; in assay [9], 62.6 µM; in [2] it was more than 100 µM; in assay [3] it was more than 100 µM; in assay [4] it was more than 100 µM; in assay [5] it was more than 100 µM. In addition, the concentration for total growth inhibition (TGI) in assay [6], in [7] and in assay [8] was more than 100 µM each time.
As for `C/C=C1/CCC2c3[nH]c4ccccc4c3CCN2C1` (centres undefined), the TGI in [1], in assay [9], in assay [2], in assay [3], in assay [4] and in [5] was more than 100 µM each time. Moreover, the TGI in assay [7] and in [8] was more than 100 µM throughout.
With `COc1ccccc1C1c2cc3c(cc2OC(O)(CO)C1C(=O)O)OCO3` (centres undefined) (tested in a mixture with another compound), the TGI in assay [1], in [9], in assay [2], in assay [3], in assay [4] and in assay [5] was more than 100 µM in each case. Besides, the TGI in assay [6], in assay [7] and in assay [8] was more than 100 µM throughout.
On to `C=C1C(=O)OC2C=C(CCC(C)=O)C(C)C(OC(C)=O)CC12` (centres undefined), for which the TGI worked out at 27.7 µM in assay [1]; 8.89 µM in [9]; 12.4 µM in assay [2]; 28.5 µM in [3]; 26 µM in [4]; 21.5 µM in assay [6]. Further, in assay [8], the TGI worked out at 24.4 µM.
Consider `O=[N+]([O-])c1cc(C2SCc3nc4ccccc4n32)ccc1Cl` (centres undefined), for which the TGI in [9] is 42.4 µM; in [2] it was 85.9 µM; in [3] it was 89.5 µM; in assay [4] it was more than 100 µM; in assay [6], 34.3 µM; in assay [7], 53.1 µM. This compound also registered a TGI in [8] of more than 100 µM.
As to `NCCN.NCCN.O=C([O-])CCl.O=C([O-])CCl.[Co+3].[O-][Cl+3]([O-])([O-])[O-]`, the GI50 was more than 100 µM in [1]; more than 100000 nM in assay [2]; more than 100 µM in assay [3]; more than 100 µM in [4]; more than 100 µM in assay [5]; more than 100 µM in assay [6]. The GI50 in [7] is more than 100 µM; in [8], more than 100000 nM. The TGI in assay [1], in assay [2], in assay [3], in assay [4], in [5] and in [6] was more than 100 µM each time. Further, the TGI in assay [7] and in [8] was more than 100 µM throughout.
In the case of `O=C(O)CCC(NC(=O)c1ccccc1)C(=O)O` (centres undefined), the TGI in assay [1], in assay [2], in [3], in assay [4], in assay [5] and in assay [6] was more than 100 µM throughout. The TGI in assay [7] and in assay [8] was more than 100 µM throughout.
In the case of `O=C1C2C=CC(C2)C(c2ccc(O)cc2)N1O` (centres undefined), the TGI in assay [1], in [9], in assay [2], in assay [4], in [5] and in assay [6] was more than 100 µM each time. Besides, the TGI in [7] and in assay [8] was more than 100 µM in each case.
Consider `Cc1ccc([N+](=O)[O-])cc1NC(=O)c1cccc([N+](=O)[O-])c1O`, for which the TGI worked out at 34.4 µM in assay [9]; 83.7 µM in assay [2]; 54.1 µM in assay [3]; 72 µM in assay [4]; 34 µM in [5]; 39.5 µM in [7]. Further, the TGI in assay [8] was 93.8 µM.
